Experimental data: ChEMBL document CHEMBL1147466 (Bioorg Med Chem Lett, 2004)

Columns and labels:
[1] = target: T1, Lysophosphatidic acid receptor 2 (Homo sapiens, UniProt Q9HBW0); assay: Maximal efficacy to that of maximal efficacy of LPA against lysophosphatidic acid receptor 2 was determined in vitro
[2] = target: T2, Lysophosphatidic acid receptor 1 (Homo sapiens, UniProt Q92633); assay: Maximal efficacy to that of maximal efficacy of LPA against lysophosphatidic acid receptor 1 was determined in vitro
T2 sequence (Q92633 whole entry): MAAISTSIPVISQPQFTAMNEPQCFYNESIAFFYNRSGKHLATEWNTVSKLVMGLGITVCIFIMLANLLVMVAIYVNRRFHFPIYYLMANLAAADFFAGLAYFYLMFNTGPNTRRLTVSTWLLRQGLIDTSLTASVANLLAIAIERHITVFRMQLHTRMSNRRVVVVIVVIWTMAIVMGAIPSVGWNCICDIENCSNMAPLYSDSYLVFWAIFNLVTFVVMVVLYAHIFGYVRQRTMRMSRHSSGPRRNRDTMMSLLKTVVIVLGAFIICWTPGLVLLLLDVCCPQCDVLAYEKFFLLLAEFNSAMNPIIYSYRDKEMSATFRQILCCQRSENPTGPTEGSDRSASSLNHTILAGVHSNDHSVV

[3] = target: T3, Lysophosphatidic acid receptor 3 (Homo sapiens, UniProt Q9UBY5); assay: Agonistic activity against lysophosphatidic acid receptor 3 using [35S]GTP-gamma-S as radioligand tested in vitro; type: functional
T3 sequence (Q9UBY5 whole entry): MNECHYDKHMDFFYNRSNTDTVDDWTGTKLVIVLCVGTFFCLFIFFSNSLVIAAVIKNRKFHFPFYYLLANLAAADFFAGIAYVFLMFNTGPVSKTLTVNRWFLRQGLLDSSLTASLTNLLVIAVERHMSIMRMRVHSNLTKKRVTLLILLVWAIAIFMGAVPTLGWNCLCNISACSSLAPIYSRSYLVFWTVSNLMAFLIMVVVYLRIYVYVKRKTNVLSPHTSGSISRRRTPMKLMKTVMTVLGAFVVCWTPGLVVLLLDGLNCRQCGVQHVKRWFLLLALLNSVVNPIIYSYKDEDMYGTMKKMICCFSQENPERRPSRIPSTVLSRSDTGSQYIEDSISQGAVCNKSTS

[4] = target: T1, Lysophosphatidic acid receptor 2; assay: Agonistic activity against lysophosphatidic acid receptor 2 using [35S]GTP-gamma-S as radioligand tested in vitro; type: functional
[5] = target: T2, Lysophosphatidic acid receptor 1; assay: Agonistic activity against lysophosphatidic acid receptor 1 using [35S]GTP-gamma-S as radioligand tested in vitro; type: functional
[6] = target: T4, Lysophosphatidic acid receptor 3 (Homo sapiens) (UniProt Q9UBY5); assay: Maximal efficacy to that of maximal efficacy of LPA against lysophosphatidic acid receptor 3 was determined in vitro
T4 sequence (whole entry): T3 sequence (Q9UBY5 whole entry)

[7] = target: T2, Lysophosphatidic acid receptor 1; assay: Agonistic activity against lysophosphatidic acid receptor 1 receptor using [35S]GTP-gamma-S as radioligand tested in vitro; type: functional

T1 sequence (Q9HBW0 whole entry): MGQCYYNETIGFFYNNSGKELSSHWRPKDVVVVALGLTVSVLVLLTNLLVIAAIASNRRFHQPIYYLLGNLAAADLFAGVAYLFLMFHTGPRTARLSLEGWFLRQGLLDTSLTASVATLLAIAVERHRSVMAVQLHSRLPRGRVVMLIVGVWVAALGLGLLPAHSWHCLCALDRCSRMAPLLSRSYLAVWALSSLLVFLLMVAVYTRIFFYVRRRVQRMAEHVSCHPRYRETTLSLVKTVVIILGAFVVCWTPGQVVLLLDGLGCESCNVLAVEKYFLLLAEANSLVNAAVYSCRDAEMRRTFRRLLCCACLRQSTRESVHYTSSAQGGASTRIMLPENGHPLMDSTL

Q: Which results are given for `CCCCCCCC/C=C\CCCCCCCC(=O)NCCOP(=O)(O)O`?
A: Emax [1]: 110%; Emax [2]: 100%

Q: With `CCCCCCCC/C=C\CCCCCCCC(=O)NCCC(=O)P(=O)(O)O` as the molecule, how does the EC50 [3] read?
A: The EC50 was over 5000 nM.

Q: And the EC50 [4]?
A: Its EC50 is 1090 nM.

Q: What about the Emax [1] of the same molecule?
A: The Emax was 90%.

Q: What about the EC50 [5] of the same molecule?
A: The EC50 was 221 nM.

Q: What about the Emax [2] of the same molecule?
A: The Emax was 80%.

Q: Which results are given for `CCCCCCCC/C=C\CCCCCCCC(=O)NCCC(=O)P(O)(O)=S`?
A: EC50 [3]: > 5000 nM; EC50 [4]: 108 nM; Emax [1]: 46%; EC50 [5]: 40 nM; Emax [2]: 80%

Q: What does the source list for `CCCCCCCC/C=C\CCCCCCCC(=O)NCCC(F)P(=O)(O)O` (stereo unspecified)?
A: EC50 [3]: > 5000 nM; EC50 [4]: 1960 nM; Emax [1]: 100%; EC50 [5]: > 5000 nM

Q: `CCCCCCCC/C=C\CCCCCCCC(=O)OC[C@@H](O)COP(=O)(O)O` [LYSOPHOSPHATIDIC ACID] was tested. Which Emax [1] did it give?
A: Its Emax is 100%.

Q: What about the Emax [6] of the same molecule?
A: The Emax was 100%.

Q: And the EC50 [5]?
A: The EC50 was 17 nM.

Q: What about the Emax [2] of the same molecule?
A: Its Emax is 100%.

Q: With `CCCCCCCC/C=C\CCCCCCCC(=O)NCCCP(=O)(O)O` as the molecule, how does the EC50 [3] read?
A: The EC50 was over 5000 nM.

Q: And the EC50 [4]?
A: Its EC50 is over 5000 nM.

Q: And the EC50 [5]?
A: The EC50 was 1950 nM.

Q: What about the Emax [2] of the same molecule?
A: Its Emax is 50%.

Q: What does the source list for `CCCCCCCC/C=C\CCCCCCCC(=O)NCCC(=S)P(=O)(O)O`?
A: EC50 [3]: > 5000 nM; EC50 [4]: > 5000 nM; EC50 [5]: 318 nM; Emax [2]: 50%

Q: Which results are given for `CCCCCCCC/C=C\CCCCCCCC(=O)NCCC(O)(P(=O)(O)O)P(=O)(O)O`?
A: EC50 [3]: > 5000 nM; EC50 [4]: > 5000 nM; EC50 [5]: > 5000 nM

Q: How did the EC50 [7] turn out when `CCCCCCCC/C=C\CCCCCCCC(=O)NCCC(O)P(=O)(O)O` (stereo unspecified) was run?
A: Its EC50 is 1230 nM.

Q: And the EC50 [3]?
A: The EC50 was over 5000 nM.

Q: What about the EC50 [4] of the same molecule?
A: Its EC50 is 2070 nM.

Q: What about the Emax [1] of the same molecule?
A: Its Emax is 90%.

Q: And the Emax [2]?
A: The Emax was 80%.
